In brackets after ≈: the same amount, converted by molar mass.
Legend:
Type in all cases: functional
[1] = tested on: Bacillus cereus; assay: Antibacterial activity against Bacillus cereus DSM318 after 24 hrs at 37 degC by serial dilution method; conditions: DSM318, 24 h
[2] = tested on: Staphylococcus aureus; assay: Antibacterial activity against Staphylococcus aureus ATCC 13709 after 24 hrs at 37 degC by serial dilution method; conditions: ATCC 13709, 24 h
[3] = tested on: Agrobacterium tumefaciens; assay: Antibacterial activity against Agrobacterium tumefaciens ATCC 23308 after 24 hrs at 37 degC by serial dilution method; conditions: ATCC 23308, 24 h
[4] = tested on: Candida albicans; assay: Antifungal activity against Candida albicans ATCC 10231 after 24 hrs at 37 degC by serial dilution method; conditions: ATCC 10231, 24 h
[5] = tested on: Candida tropicalis; assay: Antifungal activity against Candida tropicalis DSM1346 after 24 hrs at 37 degC by serial dilution method
[6] = tested on: Rhodotorula glutinis; assay: Antifungal activity against Rhodotorula glutinis DSM70398 after 24 hrs at 27 degC by serial dilution method
[7] = tested on: Aspergillus niger; assay: Inhibition of spore germination of Aspergillus niger DSM737 after 24 hrs at 27 degC by serial dilution method; conditions: DSM737, 24 h
[8] = tested on: Aspergillus ochraceus; assay: Inhibition of spore germination of Aspergillus ochraceus DSM63304 after 24 hrs at 27 degC by serial dilution method

CC#CC#CC#C[C@@H]1O[C@@H]1CO (relative stereo)
MIC [1]: > 100 µg/mL
MIC [2]: > 100 µg/mL
MIC [3]: > 100 µg/mL
MIC [4]: 50 µg/mL (≈ 312 µM)
MIC [5]: 50 µg/mL (≈ 312 µM)
MIC [6]: 10 µg/mL (≈ 62.4 µM)
MIC [7]: 1 µg/mL (≈ 6.24 µM)
MIC [8]: 1 µg/mL (≈ 6.24 µM)

From ChEMBL document CHEMBL1149050, “An antifungal polyacetylenic compound from the culture filtrate of the fungus Trametes pubescens” (1994)
